Key:
barnyardgrass [1] = assay: Test B pre-/postemergence herbicide test; assay type: in vivo, Echinochloa crus-galli; conditions: for Plant response rating (0 to 100 scale), Barnyardgrass: 0 is no effect, preemergence
Method in brief: (§1)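 Species tested were Echinochloa crus-galli, Ipomoea coccinea, Xanthium strumarium and Oryza sativa, treated both before emergence and at the 1- to 4-leaf stage; rice and barnyardgrass were also tested under flooding at 2 leaves. Greenhouse incubation lasted 13–15 days before visual 0–100 scoring.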

Surinam grass = assay: Test B pre-/postemergence herbicide test; assay type: in vivo, Urochloa decumbens; conditions: for Plant response rating (0 to 100 scale), Surinam Grass: 0 is no effect, 100 is complete control, preemergence
Method in brief: (§2)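 Response was scored visually 13 to 15 days after treatment against untreated greenhouse controls, 0 meaning no effect and 100 complete control. Formulations (solvent mixture plus surfactant) went onto soil after planting, onto foliage of 1- to 4-leaf plants, and onto 2-leaf plants in a flooded paddy set including rice and barnyardgrass.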

cocklebur = assay: Test B pre-/postemergence herbicide test; assay type: in vivo, Xanthium strumarium; conditions: for Plant response rating (0 to 100 scale), Cocklebur: 0 is no effect, preemergence
Method in brief: as §1

corn = assay: Test B pre-/postemergence herbicide test; assay type: in vivo, Zea mays; conditions: for Plant response rating (0 to 100 scale), Corn: 0 is no effect, preemergence
Method in brief: as §2

large crabgrass = assay: Test B pre-/postemergence herbicide test; assay type: in vivo, Digitaria sanguinalis
Method in brief: as §2

giant foxtail = assay: Test B pre-/postemergence herbicide test; assay type: in vivo, Setaria faberi; conditions: for Plant response rating (0 to 100 scale), Foxtail, Giant: 0 is no effect, preemergence
Method in brief: as §2

lambsquarters = assay: Test B pre-/postemergence herbicide test; assay type: in vivo, Chenopodium album; conditions: for Plant response rating (0 to 100 scale), Lambsquarters: 0 is no effect, 100 is complete control, preemergence; for Lambsquarters plant response rating: scale 0 (no effect) to 100 (complete control)
Method in brief: as §2

morningglory = assay: Test B pre-/postemergence herbicide test; assay type: in vivo, Ipomoea coccinea; conditions: for Plant response rating (0 to 100 scale), Morningglory: 0 is no effect, 100 is complete control, preemergence
Method in brief: as §1

pigweed = assay: Test B pre-/postemergence herbicide test; assay type: in vivo, Amaranthus retroflexus; conditions: for Plant response rating (0 to 100 scale), Pigweed: 0 is no effect, 100 is complete control, preemergence
Method in brief: as §2

velvetleaf = assay: Test B pre-/postemergence herbicide test; assay type: in vivo, Abutilon theophrasti; conditions: for Plant response rating (0 to 100 scale), Velvetleaf: 0 is no effect, 100 is complete control, preemergence
Method in brief: as §2

blackgrass = assay: Test B postemergence herbicide test; assay type: in vivo, Alopecurus myosuroides
Method in brief: (§3)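 Plants grow to 1- to 4-leaf stage (2–18 cm) for postemergence spraying, or to 2-leaf stage for the paddy test. Formulated compound is applied. Greenhouse holding lasts 13–15 days. Response is scored visually relative to controls, 0 no effect to 100 complete control; a dash means no result.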

wheat = assay: Test B postemergence herbicide test; assay type: in vivo, Triticum aestivum; design: key to Wheat plant response rating: 0 = no effect, 100 = complete control
Method in brief: (§4)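 Visual ratings, 0 (no effect) to 100 (complete control), made versus controls after 13–15 d greenhouse. Paddy plants treated at 2-leaf stage; postemergence plants at 1- to 4-leaf stage, 2–18 cm tall.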

wild oat = assay: Test B postemergence herbicide test; assay type: in vivo, Avena fatua
Method in brief: as §4

rice [2] = assay: Test B flooded paddy test; assay type: in vivo, Oryza sativa; conditions: 1000 g ai/ha, scale 0 to 100 (0 no effect, 100 complete control)
Method in brief: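 Postemergence plants were sprayed with formulated test chemicals at 2 to 18 cm height (1- to 4-leaf stage); paddy species were grown to the 2-leaf stage. After 13 to 15 days in a greenhouse, injury was rated visually against untreated controls on a 0–100 scale (0 = no effect, 100 = complete control).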

[3] = system: small flower umbrella sedge; assay: Test B flooded paddy test; assay type: in vivo, Cyperus difformis; conditions: 1000 g ai/ha, scale 0 to 100 (0 no effect, 100 complete control)
Method in brief: as §3

ducksalad [4] = assay: Test B flooded paddy test; assay type: in vivo, Heteranthera limosa; conditions: 1000 g ai/ha, scale 0 to 100 (0 no effect, 100 complete control)
Method in brief: as §3

barnyardgrass [5] = assay: Test B flooded paddy test; assay type: in vivo, Echinochloa crus-galli; conditions: 1000 g ai/ha, scale 0 to 100 (0 no effect, 100 complete control)
Method in brief: as §3

rice [6] = assay: Test C flooded paddy test; assay type: in vivo, Oryza sativa; conditions: for Plant response rating, Rice: 500 g ai/ha, visual rating after 12 to 14 days
Method in brief: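 Plants were grown to the 1- to 4-leaf stage (2–18 cm) and then treated postemergence, or grown to the 2-leaf stage for the flooded paddy test. They were held in a greenhouse for 12 to 14 days and then scored by eye against controls, where 0 is no effect and 100 is complete control.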

[7] = system: smallflower umbrella sedge; assay: Test C flooded paddy test; assay type: in vivo, Cyperus difformis; conditions: for Plant response rating, Sedge, Umbrella: 500 g ai/ha, visual rating after 12 to 14 days
ducksalad [8] = assay: Test C flooded paddy test; assay type: in vivo, Heteranthera limosa; conditions: for Plant response rating, Ducksalad: 500 g ai/ha, visual rating after 12 to 14 days
barnyardgrass [9] = assay: Test C flooded paddy test; assay type: in vivo, Echinochloa crus-galli; conditions: for Plant response rating, Barnyardgrass: 500 g ai/ha, visual rating after 12 to 14 days
Method in brief: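 Injury scored visually against controls on a 0 (no effect) to 100 (complete control) scale, 12 to 14 days after treatment in greenhouse. Flooded paddy plants treated at 2-leaf stage; postemergence plants at 1- to 4-leaf stage, 2 to 18 cm tall.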

[10] = 125 g ai/ha, 100 is complete control
[11] = 125 g ai/ha, visual rating, scale 0 (no effect) to 100 (complete control), postemergence
[12] = postemergence, 500 g ai/ha, scale 0 to 100, 0 is no effect, 100 is complete control
[13] = Postemergence, 500 g ai/ha, scale 0 (no effect) to 100 (complete control)
[14] = 500 g ai/ha, scale 0 to 100, 0 no effect, 100 complete control, preemergence
[15] = 125 g ai/ha, scale 0 to 100 (0 no effect, 100 complete control)
[16] = 250 g ai/ha, scale of 0 to 100, 0 is no effect, 100 is complete control
[17] = scale 0 to 100 (0 no effect, 100 complete control)
[18] = 62 g ai/ha, scale 0 to 100 (0 no effect, 100 complete control)
[19] = postemergence, 125 g ai/ha, scale 0 to 100

## Cc1nn(C(C)(C)C)nc1C(=O)Nc1cc(C(=O)N(C)C)ccc1F [Compound 378]
Barnyardgrass [1]; [10]
  Plant response rating (0 to 100 scale), Barnyardgrass: 30
Barnyardgrass [1]; [11]
  Barnyardgrass plant response rating: 0
Barnyardgrass [1]; [12]
  Barnyardgrass plant response rating: 0
Surinam grass; 125 g ai/ha
  Plant response rating (0 to 100 scale), Surinam Grass: 0
Surinam grass; [11]
  Surinam Grass plant response rating: 10
Surinam grass; [13]
  Surinam Grass plant response rating: 20
cocklebur; [10]
  Plant response rating (0 to 100 scale), Cocklebur: 0
cocklebur; [11]
  Cocklebur plant response rating: 0
cocklebur; [12]
  Cocklebur plant response rating: 0
corn; [10]
  Plant response rating (0 to 100 scale), Corn: 30
corn; [11]
  Corn plant response rating: 0
corn; [12]
  Corn plant response rating: 10
Large crabgrass; [11]
  Crabgrass, Large plant response rating: 0
Large crabgrass; [12]
  Crabgrass, Large plant response rating: 10
Giant foxtail; [10]
  Plant response rating (0 to 100 scale), Foxtail, Giant: 30
Giant foxtail; [11]
  Foxtail, Giant plant response rating: 0
Giant foxtail; [12]
  Foxtail, Giant plant response rating: 30
lambsquarters; 125 g ai/ha
  Plant response rating (0 to 100 scale), Lambsquarters: 90
lambsquarters; 125 g ai/ha, visual rating, postemergence
  Lambsquarters plant response rating: 40
lambsquarters; Postemergence, 500 g ai/ha
  Lambsquarters plant response rating: 70
morningglory; 125 g ai/ha
  Plant response rating (0 to 100 scale), Morningglory: 0
morningglory; [11]
  Morningglory plant response rating: 20
morningglory; [13]
  Morningglory plant response rating: 30
pigweed; 125 g ai/ha
  Plant response rating (0 to 100 scale), Pigweed: 90
pigweed; [11]
  Pigweed plant response rating: 40
pigweed; [13]
  Pigweed plant response rating: 70
velvetleaf; 125 g ai/ha
  Plant response rating (0 to 100 scale), Velvetleaf: 50
velvetleaf; [11]
  Velvetleaf plant response rating: 10
velvetleaf; [13]
  Velvetleaf plant response rating: 40
blackgrass; [11]
  Blackgrass plant response rating: 0
blackgrass; [12]
  Blackgrass plant response rating: 0
wheat; [11]
  Wheat plant response rating: 0
wheat; [14]
  Wheat plant response rating: 100
wheat; [13]
  Wheat plant response rating: 0
Wild oat; [11]
  Oat, Wild plant response rating: 0
Wild oat; [13]
  Oat, Wild plant response rating: 20
Rice [2]
  Rice plant response rating: 70
[3]
  Sedge, Umbrella plant response rating: 80
Ducksalad [4]
  Ducksalad plant response rating: 90
Barnyardgrass [5]
  Barnyardgrass plant response rating: 80
Rice [6]; 62 g ai/ha, scale 0 to 100
  Rice plant response rating: 0
Rice [6]; [15]
  Rice plant response rating: 10
Rice [6]; [16]
  Rice plant response rating: 30
Rice [6]; [17]
  Plant response rating, Rice: 60
[7]; 62 g ai/ha, scale 0 to 100
  Sedge, Umbrella plant response rating: 0
[7]; [15]
  Sedge, Umbrella plant response rating: 15
[7]; [16]
  Sedge, Umbrella plant response rating: 55
[7]; [17]
  Plant response rating, Sedge, Umbrella: 80
Ducksalad [8]; 62 g ai/ha, scale 0 to 100
  Ducksalad plant response rating: 0
Ducksalad [8]; [15]
  Ducksalad plant response rating: 0
Ducksalad [8]; [16]
  Ducksalad plant response rating: 20
Ducksalad [8]; [17]
  Plant response rating, Ducksalad: 75
Barnyardgrass [9]; [18]
  Barnyardgrass plant response rating: 0
Barnyardgrass [9]; [15]
  Barnyardgrass plant response rating: 0
Barnyardgrass [9]; [16]
  Barnyardgrass plant response rating: 0
Barnyardgrass [9]; [17]
  Plant response rating, Barnyardgrass: 50

## CCN(C)C(=O)c1cccc(NC(=O)c2nn(C(C)C)nc2C)c1 [Compound 407]
Barnyardgrass [1]; [10]
  Plant response rating (0 to 100 scale), Barnyardgrass: 40
Barnyardgrass [1]; Postemergence, 125 g ai/ha, scale 0 (no effect) to 100 (complete control)
  Barnyardgrass plant response rating: 0
Barnyardgrass [1]; [13]
  Barnyardgrass plant response rating: 10
Surinam grass; 125 g ai/ha
  Plant response rating (0 to 100 scale), Surinam Grass: 30
Surinam grass; [13]
  Surinam Grass plant response rating: 20
Surinam grass; [19]
  Surinam Grass plant response rating: 0
cocklebur; [10]
  Plant response rating (0 to 100 scale), Cocklebur: 10
cocklebur; [13]
  Cocklebur plant response rating: 20
cocklebur; [19]
  Cocklebur plant response rating: 10
corn; [10]
  Plant response rating (0 to 100 scale), Corn: 0
corn; [13]
  Corn plant response rating: 20
corn; [19]
  Corn plant response rating: 10
Large crabgrass; 125 g ai/ha, 0 is no effect, 100 is complete control, preemergence
  Plant response rating (0 to 100 scale), Crabgrass, Large: 80
Large crabgrass; [13]
  Crabgrass, Large plant response rating: 20
Large crabgrass; [19]
  Crabgrass, Large plant response rating: 10
Giant foxtail; [10]
  Plant response rating (0 to 100 scale), Foxtail, Giant: 30
Giant foxtail; [13]
  Foxtail, Giant plant response rating: 30
Giant foxtail; [19]
  Foxtail, Giant plant response rating: 10
lambsquarters; 125 g ai/ha
  Plant response rating (0 to 100 scale), Lambsquarters: 80
lambsquarters; Postemergence, 500 g ai/ha
  Lambsquarters plant response rating: 60
morningglory; 125 g ai/ha
  Plant response rating (0 to 100 scale), Morningglory: 30
morningglory; [13]
  Morningglory plant response rating: 60
morningglory; [19]
  Morningglory plant response rating: 20
pigweed; 125 g ai/ha
  Plant response rating (0 to 100 scale), Pigweed: 50
pigweed; [13]
  Pigweed plant response rating: 40
pigweed; [19]
  Pigweed plant response rating: 30
velvetleaf; 125 g ai/ha
  Plant response rating (0 to 100 scale), Velvetleaf: 10
velvetleaf; [13]
  Velvetleaf plant response rating: 20
velvetleaf; [19]
  Velvetleaf plant response rating: 20
blackgrass; [13]
  Blackgrass plant response rating: 20
blackgrass; [19]
  Blackgrass plant response rating: 0
wheat; [14]
  Wheat plant response rating: 70
wheat; [13]
  Wheat plant response rating: 0
wheat; [19]
  Wheat plant response rating: 0
Wild oat; [13]
  Oat, Wild plant response rating: 0
Wild oat; [19]
  Oat, Wild plant response rating: 0
Rice [2]
  Rice plant response rating: 50
[3]
  Sedge, Umbrella plant response rating: 90
Ducksalad [4]
  Ducksalad plant response rating: 80
Barnyardgrass [5]
  Barnyardgrass plant response rating: 80
Rice [6]; 62 g ai/ha, scale 0 to 100
  Rice plant response rating: 0
Rice [6]; [15]
  Rice plant response rating: 0
Rice [6]; [16]
  Rice plant response rating: 20
Rice [6]; [17]
  Plant response rating, Rice: 40
[7]; 62 g ai/ha, scale 0 to 100
  Sedge, Umbrella plant response rating: 20
[7]; [15]
  Sedge, Umbrella plant response rating: 60
[7]; [16]
  Sedge, Umbrella plant response rating: 75
[7]; [17]
  Plant response rating, Sedge, Umbrella: 75
Ducksalad [8]; 62 g ai/ha, scale 0 to 100
  Ducksalad plant response rating: 20
Ducksalad [8]; [15]
  Ducksalad plant response rating: 40
Ducksalad [8]; [16]
  Ducksalad plant response rating: 40
Ducksalad [8]; [17]
  Plant response rating, Ducksalad: 40
Barnyardgrass [9]; [18]
  Barnyardgrass plant response rating: 0
Barnyardgrass [9]; [15]
  Barnyardgrass plant response rating: 0
Barnyardgrass [9]; [16]
  Barnyardgrass plant response rating: 0
Barnyardgrass [9]; [17]
  Plant response rating, Barnyardgrass: 20

Source: patent US20060069132A1, “Azolecarboxamide herbicides” (priority 2004, published 2006)
